# Assay results taken from ChEMBL document CHEMBL4665665, “4-Aryl Pyrrolidines as Novel Orally Efficacious Antimalarial Agents. Part 2: 2-Aryl-N-(4-arylpyrrolidin-3-yl)acetamides” (ACS Med Chem Lett, 2019).
# pIC50: −log10 of the molar value. Activity calls are given as the source filed them. No cut-off for these calls is given here.
# What was measured:
# [1] = molecular target: T1, Cytochrome P450 1A2 (Homo sapiens, UniProt P05177); experiment: Inhibition of recombinant human CYP1A2 expressed in baculovirus infected insect cells using phenacetin as substrate incubated for 30 mins in presence of NADPH-regenerating system by fluorescence based assay; type: ADME
# T1 sequence (P05177 whole entry): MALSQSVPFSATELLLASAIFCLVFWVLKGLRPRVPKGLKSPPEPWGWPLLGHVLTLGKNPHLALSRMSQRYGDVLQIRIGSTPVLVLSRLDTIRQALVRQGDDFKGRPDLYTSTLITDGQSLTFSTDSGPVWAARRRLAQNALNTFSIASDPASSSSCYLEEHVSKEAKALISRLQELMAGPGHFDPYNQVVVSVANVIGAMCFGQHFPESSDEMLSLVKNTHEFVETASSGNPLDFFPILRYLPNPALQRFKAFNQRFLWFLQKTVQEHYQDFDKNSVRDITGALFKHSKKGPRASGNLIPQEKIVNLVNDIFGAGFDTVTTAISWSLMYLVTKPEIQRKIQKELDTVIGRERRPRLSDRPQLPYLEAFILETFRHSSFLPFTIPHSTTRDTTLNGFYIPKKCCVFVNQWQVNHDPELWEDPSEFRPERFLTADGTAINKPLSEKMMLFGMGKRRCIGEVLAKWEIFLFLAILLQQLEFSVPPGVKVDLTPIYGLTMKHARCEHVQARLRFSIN
# [2] = molecular target: Cytochrome P450 2D6 (Homo sapiens, UniProt P10635); experiment: Inhibition of recombinant human CYP2D6 expressed in baculovirus infected insect cells using dextromethorphan as substrate incubated for 30 mins in presence of NADPH-regenerating system by fluorescence based assay; type: ADME
# [3] = test system: Plasmodium falciparum; experiment: Antimalarial activity against multidrug resistant Plasmodium falciparum Dd2 incubated for 72 hrs by SYBR Green-1 dye based fluorescence assay; type: functional, organism-based; conditions: Dd2, 72 h
# [4] = Plasma concentration in NIH mouse infected with Plasmodium chabaudi ASS at 10 mg/kg, po qd for 4 days starting from 4 hrs post-parasite inoculation and measured at 6 hrs post-dosing on day 4 by LC/MS analysis; type: ADME, organism-based; conditions: dose 10 mg/kg/day, time 4 day
# [5] = Apparent volume of distribution in KM mouse at 2 mg/kg, iv administered as cassette dosing measured up to 24 hrs by LC/MS analysis; type: ADME, organism-based; conditions: in vivo, read-out: Vz
# [6] = test system: HepG2; experiment: Cytotoxicity against human HepG2 cells assessed as cell viability at 5 uM incubated for 72 hrs by PrestoBlue cell viability reagent based assay; conditions: hepg2, 72 h
# [7] = Half life in KM mouse at 2 mg/kg, iv administered as cassette dosing measured up to 24 hrs by LC/MS analysis; type: ADME, organism-based; conditions: in vivo
# [8] = Plasma concentration in NIH mouse infected with Plasmodium chabaudi ASS at 10 mg/kg, po qd for 4 days starting from 4 hrs post-parasite inoculation and measured at 24 hrs post-dosing on day 4 by LC/MS analysis; type: ADME, organism-based; conditions: dose 10 mg/kg/day, time 4 day
# [9] = molecular target: Cytochrome P450 3A4 (Homo sapiens, UniProt P08684); experiment: Inhibition of recombinant human CYP3A4 expressed in baculovirus infected insect cells using midazolam as substrate incubated for 30 mins in presence of NADPH-regenerating system by fluorescence based assay; type: ADME
# [10] = Apparent clearance in KM mouse at 2 mg/kg, iv administered as cassette dosing measured up to 24 hrs by LC/MS analysis; type: ADME, organism-based; conditions: in vivo
# [11] = Plasma concentration in NIH mouse infected with Plasmodium chabaudi ASS at 10 mg/kg, po qd for 4 days starting from 4 hrs post-parasite inoculation and measured at 1 hr post-dosing on day 4 by LC/MS analysis; type: ADME, organism-based; conditions: dose 10 mg/kg/day, time 4 day
# [12] = molecular target: Voltage-gated inwardly rectifying potassium channel KCNH2 (Homo sapiens, UniProt Q12809); experiment: Displacement of Tracer Red from human ERG incubated for 2 hrs by fluorescence polarization assay
# [13] = test system: hERG; experiment: Selectivity ratio of IC50 for human ERG incubated for 2 hrs by fluorescence polarization assay to IC50 for CQ-sensitive Plasmodium falciparum 3D7 incubated for 72 hrs by SYBR Green-1 dye based fluorescence assay; type: toxicity; conditions: read-out: Ratio IC50
# [14] = test system: Plasmodium falciparum; experiment: Inhibition of Plasmodium falciparum plasmepsin 4 using PM-2 peptide substrate incubated for 60 mis by fluorescence based assay; conditions: time 60.0 min
# [15] = molecular target: Cytochrome P450 2C9 (Homo sapiens, UniProt P11712); experiment: Inhibition of recombinant human CYP2C9 expressed in baculovirus infected insect cells using tolbutamide as substrate incubated for 30 mins in presence of NADPH-regenerating system by fluorescence based assay; type: ADME
# [16] = molecular target: Beta-secretase 1 (Homo sapiens) (UniProt P56817); experiment: Inhibition of recombinant human BACE1 using Mca-SEVNLDAEFRK(Dnp)RR-NH2 fluorogenic peptide as substrate incubated for 60 mis by fluorescence based assay; conditions: time 60.0 min
# [17] = molecular target: Plasmepsin II (Plasmodium falciparum) (UniProt P46925); experiment: Inhibition of Plasmodium falciparum plasmepsin 2 using PM-2 peptide substrate incubated for 60 mis by fluorescence based assay; conditions: time 60.0 min
# [18] = test system: Plasmodium falciparum; experiment: Antimalarial activity against CQ-sensitive Plasmodium falciparum 3D7 incubated for 72 hrs by SYBR Green-1 dye based fluorescence assay; type: functional, organism-based; conditions: Plasmodium falciparum, 3D7, 72 h
# [19] = molecular target: Cytochrome P450 2C19 (Homo sapiens, UniProt P33261); experiment: Inhibition of recombinant human CYP2C19 expressed in baculovirus infected insect cells using s-mephenytoin as substrate incubated for 30 mins in presence of NADPH-regenerating system by fluorescence based assay; type: ADME
# [20] = Ratio of IC50 for antimalarial activity against CQ-sensitive Plasmodium falciparum 3D7 incubated for 72 hrs by SYBR Green-1 dye based fluorescence assay to Plasma concentration in NIH mouse infected with Plasmodium chabaudi ASS at 10 mg/kg, po qd for 4 days starting from 4 hrs post-parasite inoculation and measured at 24 hrs post-dosing on day 4 by LC/MS analysis
# [21] = test system: Plasmodium chabaudi; experiment: Antimalarial activity against Plasmodium chabaudi ASS infected in NIH mouse assessed as inhibition of parasitemia at 10 mg/kg, po qd for 4 days starting from 4 hrs post-parasite inoculation and measured at 24 hrs after last-drug treatment by Peter's 4-day suppressive test relative to control; type: functional; conditions: 96 h
# [22] = Plasma concentration in NIH mouse infected with Plasmodium chabaudi ASS at 3 mg/kg, po qd for 4 days starting from 4 hrs post-parasite inoculation and measured at 1 hr post-dosing on day 4 by LC/MS analysis; type: ADME, organism-based; conditions: dose 3 mg/kg/day, time 4 day
# [23] = Plasma concentration in NIH mouse infected with Plasmodium chabaudi ASS at 30 mg/kg, po qd for 4 days starting from 4 hrs post-parasite inoculation and measured at 1 hr post-dosing on day 4 by LC/MS analysis; type: ADME, organism-based; conditions: dose 30 mg/kg/day, time 4 day
# [24] = Plasma concentration in NIH mouse infected with Plasmodium chabaudi ASS at 3 mg/kg, po qd for 4 days starting from 4 hrs post-parasite inoculation and measured at 24 hrs post-dosing on day 4 by LC/MS analysis; type: ADME, organism-based; conditions: dose 3 mg/kg/day, time 4 day
# [25] = test system: Plasmodium chabaudi; experiment: Antimalarial activity against Plasmodium chabaudi ASS infected po dosed NIH mouse assessed as inhibition of parasitemia administered oce daily for 4 days starting from 4 hrs post parasite-inoculation and measured at 24 hrs post-last treatment by Peter's 4-day suppressive test; type: functional; conditions: 96 h
# [26] = test system: HepG2; experiment: Cytotoxicity against human HepG2 cells assessed as cell viability at 50 uM incubated for 72 hrs by PrestoBlue cell viability reagent based assay; conditions: hepg2, 72 h
# [27] = test system: Plasmodium chabaudi; experiment: Antimalarial activity against Plasmodium chabaudi ASS infected in NIH mouse assessed as inhibition of parasitemia at 3 mg/kg, po qd for 4 days starting from 4 hrs post-parasite inoculation and measured at 24 hrs after last-drug treatment by Peter's 4-day suppressive test relative to control; type: functional; conditions: 96 h
# [28] = Plasma concentration in NIH mouse infected with Plasmodium chabaudi ASS at 30 mg/kg, po qd for 4 days starting from 4 hrs post-parasite inoculation and measured at 6 hrs post-dosing on day 4 by LC/MS analysis; type: ADME, organism-based; conditions: dose 30 mg/kg/day, time 4 day
# [29] = Plasma concentration in NIH mouse infected with Plasmodium chabaudi ASS at 30 mg/kg, po qd for 4 days starting from 4 hrs post-parasite inoculation and measured at 24 hrs post-dosing on day 4 by LC/MS analysis; type: ADME, organism-based; conditions: dose 30 mg/kg/day, time 4 day
# [30] = Plasma concentration in NIH mouse infected with Plasmodium chabaudi ASS at 3 mg/kg, po qd for 4 days starting from 4 hrs post-parasite inoculation and measured at 6 hrs post-dosing on day 4 by LC/MS analysis; type: ADME, organism-based; conditions: dose 3 mg/kg/day, time 4 day
# [31] = test system: Plasmodium chabaudi; experiment: Antimalarial activity against Plasmodium chabaudi ASS infected in NIH mouse assessed as inhibition of parasitemia at 30 mg/kg, po qd for 4 days starting from 4 hrs post-parasite inoculation and measured at 24 hrs after last-drug treatment by Peter's 4-day suppressive test relative to control; type: functional; conditions: 96 h
# Chain of Cytochrome P450 3A4 (P08684 whole entry): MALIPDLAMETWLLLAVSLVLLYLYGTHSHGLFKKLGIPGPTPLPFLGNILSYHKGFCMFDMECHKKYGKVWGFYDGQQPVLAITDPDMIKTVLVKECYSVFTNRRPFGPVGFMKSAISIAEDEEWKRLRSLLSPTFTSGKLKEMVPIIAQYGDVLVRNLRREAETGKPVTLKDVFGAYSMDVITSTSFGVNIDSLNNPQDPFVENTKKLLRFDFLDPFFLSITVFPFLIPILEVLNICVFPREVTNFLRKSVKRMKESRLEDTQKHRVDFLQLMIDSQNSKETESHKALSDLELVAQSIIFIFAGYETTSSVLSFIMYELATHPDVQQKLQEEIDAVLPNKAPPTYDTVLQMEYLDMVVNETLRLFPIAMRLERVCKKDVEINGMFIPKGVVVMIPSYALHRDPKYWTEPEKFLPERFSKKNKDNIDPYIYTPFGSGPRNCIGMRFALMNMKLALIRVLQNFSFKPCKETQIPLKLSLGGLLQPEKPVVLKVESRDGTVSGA
# Chain of Plasmepsin II (Plasmodium falciparum) (P46925 125-453 limits assumed): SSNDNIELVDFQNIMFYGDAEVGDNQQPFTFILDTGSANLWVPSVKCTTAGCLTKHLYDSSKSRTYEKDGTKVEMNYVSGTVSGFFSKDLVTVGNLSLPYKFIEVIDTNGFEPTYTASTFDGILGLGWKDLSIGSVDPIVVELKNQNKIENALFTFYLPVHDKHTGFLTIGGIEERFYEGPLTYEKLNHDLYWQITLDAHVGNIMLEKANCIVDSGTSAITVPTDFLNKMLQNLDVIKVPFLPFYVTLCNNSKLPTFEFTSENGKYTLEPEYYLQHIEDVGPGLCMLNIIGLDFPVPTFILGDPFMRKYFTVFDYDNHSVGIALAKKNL
# Chain of Cytochrome P450 2C19 (P33261 whole entry): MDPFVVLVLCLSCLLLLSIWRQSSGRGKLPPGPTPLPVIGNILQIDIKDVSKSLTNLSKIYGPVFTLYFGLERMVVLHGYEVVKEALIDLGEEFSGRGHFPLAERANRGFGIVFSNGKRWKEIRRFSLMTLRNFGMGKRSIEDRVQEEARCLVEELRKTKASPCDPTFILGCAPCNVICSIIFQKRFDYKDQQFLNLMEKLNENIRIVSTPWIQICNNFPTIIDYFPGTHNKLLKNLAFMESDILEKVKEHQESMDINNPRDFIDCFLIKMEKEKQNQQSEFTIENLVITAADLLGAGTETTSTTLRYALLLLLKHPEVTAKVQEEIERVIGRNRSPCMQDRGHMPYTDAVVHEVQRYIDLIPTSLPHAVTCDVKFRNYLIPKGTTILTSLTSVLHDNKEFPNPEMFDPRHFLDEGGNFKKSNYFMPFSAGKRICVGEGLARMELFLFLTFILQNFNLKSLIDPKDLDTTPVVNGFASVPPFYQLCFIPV
# Chain of Cytochrome P450 2D6 (P10635 whole entry): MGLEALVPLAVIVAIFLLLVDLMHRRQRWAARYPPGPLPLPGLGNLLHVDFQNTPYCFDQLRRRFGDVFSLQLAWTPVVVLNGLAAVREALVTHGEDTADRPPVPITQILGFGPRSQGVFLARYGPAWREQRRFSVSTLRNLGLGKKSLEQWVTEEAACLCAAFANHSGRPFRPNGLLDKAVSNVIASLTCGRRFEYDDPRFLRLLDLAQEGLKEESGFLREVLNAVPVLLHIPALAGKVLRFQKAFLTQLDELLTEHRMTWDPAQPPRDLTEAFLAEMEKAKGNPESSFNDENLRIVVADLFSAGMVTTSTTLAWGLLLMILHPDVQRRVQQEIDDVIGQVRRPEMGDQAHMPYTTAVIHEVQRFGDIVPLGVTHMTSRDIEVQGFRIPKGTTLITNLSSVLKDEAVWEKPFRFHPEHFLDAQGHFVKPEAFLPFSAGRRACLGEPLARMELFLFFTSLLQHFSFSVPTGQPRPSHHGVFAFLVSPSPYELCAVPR
# Chain of Cytochrome P450 2C9 (P11712 whole entry): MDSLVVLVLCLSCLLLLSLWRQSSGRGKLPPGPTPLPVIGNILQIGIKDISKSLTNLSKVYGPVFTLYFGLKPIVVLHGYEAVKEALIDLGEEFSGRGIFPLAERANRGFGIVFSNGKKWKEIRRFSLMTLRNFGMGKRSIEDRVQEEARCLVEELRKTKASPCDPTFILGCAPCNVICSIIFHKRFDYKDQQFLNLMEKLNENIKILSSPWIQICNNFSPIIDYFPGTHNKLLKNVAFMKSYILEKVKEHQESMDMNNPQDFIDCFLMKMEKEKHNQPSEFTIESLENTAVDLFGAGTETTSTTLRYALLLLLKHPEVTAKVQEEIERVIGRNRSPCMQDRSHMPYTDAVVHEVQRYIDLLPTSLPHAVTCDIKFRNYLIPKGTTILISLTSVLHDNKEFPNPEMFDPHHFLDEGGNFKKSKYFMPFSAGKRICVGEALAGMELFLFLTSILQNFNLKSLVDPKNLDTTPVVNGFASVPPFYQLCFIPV
# Chain of Beta-secretase 1 (Homo sapiens) (P56817 whole entry): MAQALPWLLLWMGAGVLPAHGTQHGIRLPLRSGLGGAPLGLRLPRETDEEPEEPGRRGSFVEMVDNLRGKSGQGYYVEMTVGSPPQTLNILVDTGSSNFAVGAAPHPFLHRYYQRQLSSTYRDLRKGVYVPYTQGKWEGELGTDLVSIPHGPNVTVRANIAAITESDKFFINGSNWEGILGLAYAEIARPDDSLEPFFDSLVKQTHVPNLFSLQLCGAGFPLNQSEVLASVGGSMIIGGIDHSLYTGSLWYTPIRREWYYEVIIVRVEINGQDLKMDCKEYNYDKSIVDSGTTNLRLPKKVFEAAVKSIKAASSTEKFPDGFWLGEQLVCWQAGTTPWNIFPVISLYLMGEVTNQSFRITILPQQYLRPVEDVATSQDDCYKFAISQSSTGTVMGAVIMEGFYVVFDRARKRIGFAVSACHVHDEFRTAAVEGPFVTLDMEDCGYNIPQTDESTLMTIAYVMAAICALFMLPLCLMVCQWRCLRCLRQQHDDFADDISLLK
# Chain of Voltage-gated inwardly rectifying potassium channel KCNH2 (Q12809 whole entry): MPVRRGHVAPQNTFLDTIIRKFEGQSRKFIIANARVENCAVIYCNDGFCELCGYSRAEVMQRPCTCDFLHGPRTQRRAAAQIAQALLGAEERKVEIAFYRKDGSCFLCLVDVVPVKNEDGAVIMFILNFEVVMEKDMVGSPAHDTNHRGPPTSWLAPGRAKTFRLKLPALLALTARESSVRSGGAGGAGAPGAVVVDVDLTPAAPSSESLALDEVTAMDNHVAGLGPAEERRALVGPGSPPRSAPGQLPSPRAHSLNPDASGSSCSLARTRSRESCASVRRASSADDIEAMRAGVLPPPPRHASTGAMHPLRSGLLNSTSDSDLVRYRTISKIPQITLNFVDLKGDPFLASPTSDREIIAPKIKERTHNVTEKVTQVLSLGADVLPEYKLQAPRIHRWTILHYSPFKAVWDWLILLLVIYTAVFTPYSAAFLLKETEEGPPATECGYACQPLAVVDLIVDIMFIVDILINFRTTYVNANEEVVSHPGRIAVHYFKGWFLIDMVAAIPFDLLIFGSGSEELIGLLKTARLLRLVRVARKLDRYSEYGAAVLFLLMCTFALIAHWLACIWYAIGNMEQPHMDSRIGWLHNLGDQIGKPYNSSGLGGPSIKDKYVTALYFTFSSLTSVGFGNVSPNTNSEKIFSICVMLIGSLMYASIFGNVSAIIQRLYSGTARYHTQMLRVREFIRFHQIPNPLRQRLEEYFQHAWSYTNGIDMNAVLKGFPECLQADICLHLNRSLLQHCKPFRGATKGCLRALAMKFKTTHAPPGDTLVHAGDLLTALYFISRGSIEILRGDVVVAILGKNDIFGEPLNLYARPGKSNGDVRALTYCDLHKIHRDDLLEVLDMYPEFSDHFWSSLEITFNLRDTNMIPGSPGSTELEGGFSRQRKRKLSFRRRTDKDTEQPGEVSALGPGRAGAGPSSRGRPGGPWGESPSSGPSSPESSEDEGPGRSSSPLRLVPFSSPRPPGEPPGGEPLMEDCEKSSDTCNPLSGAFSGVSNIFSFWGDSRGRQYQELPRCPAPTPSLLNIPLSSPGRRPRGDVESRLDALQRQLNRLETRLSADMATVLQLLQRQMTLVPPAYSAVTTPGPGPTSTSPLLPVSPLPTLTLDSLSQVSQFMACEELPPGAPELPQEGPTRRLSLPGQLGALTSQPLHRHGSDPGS
Compound,pIC50 [1],pIC50 [2],pIC50 [3],concentration at 96 h [4] [nM],Vd [5] [L/kg],Activity [6],half-life [7] [h],concentration at 96 h [8] [nM],pIC50 [9],clearance [10] [mL/min/kg],concentration at 96 h [11] [nM],inhibition [14],pIC50 [15],inhibition [16],inhibition [17],pIC50 [18],pIC50 [19],inhibition in vivo at 10 mg/kg/day [21] [%],other results
CN(C)c1ccc(CC(=O)N[C@@H]2CNC[C@H]2c2ccc(C(F)(F)F)cc2)cc1,< 4.00,4.61,7.11,181,4.2,Non-Toxic,5.6,7.4,6.06,7.9,255,inactive,4.01,inactive,inactive,6.92,4.34,61.2,pIC50 [12]: 5.23; selectivity ratio at 2 h [13]: 49; Ratio [20]: 6
CN(C)c1ccc(CC(=O)N[C@@H]2CNC[C@H]2c2ccc(C(C)(F)F)cc2)cc1,< 4.00,4.39,7.28,48.9,2.1,Non-Toxic,2.7,1.7,5.60,13.8,389,inactive,< 4.00,inactive,inactive,7.29,4.30,94.1,concentration at 96 h [22]: 114 nM; concentration at 96 h [23]: 1310 nM; concentration at 96 h [24]: 6.6 nM; ED90 [25]: < 10 mg/kg/day; ED99 [25]: 30 mg/kg/day; Activity [26]: Non-Toxic; inhibition in vivo at 3 mg/kg/day [27]: 34%; concentration at 96 h [28]: 1150 nM; concentration at 96 h [29]: 28.5 nM; concentration at 96 h [30]: 34.1 nM; inhibition in vivo at 30 mg/kg/day [31]: 99.9%
